Values after ≈ are worked out from the molar mass of the structure shown. One block for each compound: values may come before it.
Legend:
[1] = physchem; details: octanol/water, pH 7.4
[2] = physchem
[3] = Dissociation constant, pKa of the compound; format: physicochemical
[4] = Volume of distribution at steady state in rat at 1 mg/kg, iv; format: ADME, organism-based; details: in vivo, read-out: Vdss
[5] = Drug excretion in iv dosed bile duct cannulated rat bile after 6 hrs; format: ADME, organism-based; details: read-out: Drug excretion
[6] = Permeability in RRCK cells; format: ADME, cell-based, Canis lupus familiaris, MDCKII-LE; details: dog, MDCK; read-out: permeability
[7] = Cmax in rat at 3 mg/kg, po; format: ADME, organism-based; set-up: dose 3 mg/kg, route oral; details: in vivo
[8] = AUC (0 to infinity) in rat at 3 mg/kg, po; format: ADME, organism-based; set-up: dose 3 mg/kg, time infinity, route oral; details: in vivo
[9] = Volume of distribution at steady state in dog at 0.1 mg/kg, iv; format: ADME, organism-based, Canis lupus familiaris; details: in vivo, read-out: Vdss
[10] = in vivo; details: rat, po, 3 mg/kg
[11] = Solubility of the compound at pH 6.5; format: physicochemical; details: buffer
[12] = Oral bioavailability in dog at […]; format: ADME, organism-based, Canis lupus familiaris; details: in vivo
[13] = Cmax in dog at […], po; format: ADME, organism-based, Canis lupus familiaris; set-up: dose 0.13 mg/kg, route oral; details: in vivo
[14] = AUC (0 to infinity) in dog at […], po; format: ADME, organism-based, Canis lupus familiaris; set-up: dose 0.13 mg/kg, time infinity, route oral; details: in vivo
[15] = Volume of distribution at steady state in human at 100 ug, iv; format: ADME; details: in vivo, read-out: Vdss
[16] = Cmax in dog at 3 mg/kg, po; format: ADME, organism-based, Canis lupus familiaris; set-up: dose 3 mg/kg, route oral; details: in vivo
[17] = system: Homo sapiens; assay: Unbound Cmax in human at 2400 mg, po; format: ADME; details: in vivo
[18] = Tmax in rat at 3 mg/kg, po; format: ADME, organism-based; details: in vivo
[19] = Tmax in dog at 3 mg/kg, po; format: ADME, organism-based, Canis lupus familiaris; details: in vivo
[20] = Cmax in human at 100 ug, po; format: ADME; set-up: dose 100 ug, route oral; details: in vivo
[21] = Apparent permeability from basolateral to apical side in MDCK cells harboring MDR1; format: ADME, cell-based, Canis lupus familiaris; details: dog
[22] = Apparent permeability from apical to basolateral side in MDCK cells harboring MDR1; format: ADME, cell-based, Canis lupus familiaris; details: dog
[23] = Oral bioavailability in human at 100 ug; format: ADME, organism-based; details: in vivo
[24] = Basic dissociation constant, pKa of the compound; format: physicochemical
[25] = Oral bioavailability in dog at 3 mg/kg; format: ADME, organism-based, Canis lupus familiaris; details: in vivo

SMILES: N#Cc1cc(S(=O)(=O)Nc2ncns2)ccc1Oc1ccc(C(F)(F)F)cc1-c1cccnn1
logD [1]: 0.7

SMILES: N#Cc1cc(S(=O)(=O)Nc2ncns2)ccc1Oc1ccc(C(F)(F)F)cc1-c1ccncn1
logD [1]: 0.9

SMILES: O=S(=O)(Nc1cscn1)c1cc(Cl)c(Oc2ccc(C(F)(F)F)cc2-c2ccnnc2)cc1F
pKa [3]: 5.6
logD [1]: 1.6

SMILES: Cn1nccc1-c1cc(Cl)ccc1Oc1ccc(S(=O)(=O)Nc2ncns2)cc1F
pKa [2]: 3.5

SMILES: N#Cc1cc(S(=O)(=O)Nc2ncns2)ccc1Oc1ccc(Cl)cc1-c1cn[nH]c1N
logD [1]: 1

SMILES: CN1CC(n2nccc2-c2cc(Cl)ccc2Oc2cc(F)c(S(=O)(=O)Nc3cscn3)cc2F)C1
logD [1]: 1.3

SMILES: N#Cc1cc(S(=O)(=O)Nc2ncns2)ccc1Oc1ccc(Cl)cc1-c1cn[nH]c1
Vd [4]: 2.3 L/kg
bioavailability [12]: 23%
logD [1]: 1.7
Papp [6]: 2.1 ×10⁻⁶ cm/s
pKa [2]: 3.5
Cmax [13]: 18 ng/mL
Vd [9]: 0.5 L/kg
AUC(0-inf) [14]: 40 ng·h/mL
solubility [11]: 259 µM (≈ 119 µg/mL)

SMILES: Cn1nccc1-c1cc(Cl)ccc1Oc1cc(F)c(S(=O)(=O)Nc2ncns2)cc1F
pKa [2]: 3.5

SMILES: CN1CC(n2nccc2-c2cc(Cl)ccc2Oc2cc(F)c(S(=O)(=O)Nc3ncns3)cc2F)C1
logD [1]: 1

Now from value to compound:

pKa [2]: 4.5
SMILES: Cn1nccc1-c1cc(Cl)ccc1Oc1ccc(S(=O)(=O)Nc2nncs2)cc1C#N

logD [1]: 1.6
SMILES: N#Cc1cc(S(=O)(=O)Nc2ncns2)ccc1Oc1ccc(Cl)cc1-c1ccn[nH]1

pKa [2]: 3.5
SMILES: Cn1nccc1-c1cc(Cl)ccc1Oc1ccc(S(=O)(=O)Nc2ncns2)cc1C#N

pKa [2]: 4.5
SMILES: Cn1nccc1-c1cc(Cl)ccc1Oc1cc(F)c(S(=O)(=O)Nc2nncs2)cc1Cl

logD [1]: 1.6
SMILES: N#Cc1cc(S(=O)(=O)Nc2ncns2)ccc1Oc1ccc(Cl)cc1-c1ccnc(N)c1

logD [1]: 1.6
SMILES: CCN1CC(n2nccc2-c2cc(Cl)ccc2Oc2cc(F)c(S(=O)(=O)Nc3cscn3)cc2F)C1

Vd [4]: 1.3 L/kg
logD [1]: 0.7
dose excreted at 6 h [5]: 73%
Papp [6]: 0.7 ×10⁻⁶ cm/s
Cmax [7]: 1 ng/mL
AUC(0-inf) [8]: 5 ng·h/mL
Vd [9]: 1.2 L/kg
bioavailability [10]: < 1%
solubility [11]: > 300 µM
SMILES: N#Cc1cc(S(=O)(=O)Nc2ncns2)ccc1Oc1ccc(C(F)(F)F)cc1-c1ccnnc1

logD [1]: 2.2
pKa [2]: 6.3
SMILES: Nc1n[nH]cc1-c1cc(C(F)(F)F)ccc1Oc1cc(F)c(S(=O)(=O)Nc2cscn2)cc1Cl

Vd [4]: 6.3 L/kg
logD [1]: 2
Papp [6]: 1.1 ×10⁻⁶ cm/s
Cmax [7]: 4 ng/mL
pKa [2]: 3.5
AUC(0-inf) [8]: 26 ng·h/mL
Vd [9]: 1.8 L/kg
bioavailability [10]: < 5%
solubility [11]: > 300 µM
SMILES: Cc1[nH]ncc1-c1cc(C(F)(F)F)ccc1Oc1ccc(S(=O)(=O)Nc2ncns2)cc1C#N

Vd [15]: 0.15 L/kg
logD [1]: 2.3 to 2.6
Cmax [16]: 998 ng/mL
fCmax [17]: 226 nM
Tmax [18]: 2 h
Papp [6]: 3.8 ×10⁻⁶ cm/s
Tmax [19]: 0.9 h
Cmax [20]: 11 ng/mL
Cmax [7]: 541 ng/mL
Papp B→A [21]: 6.3 ×10⁻⁶ cm/s
pKa [2]: 6.3
Vd [9]: 0.2 L/kg
solubility [11]: < 0.3 µM
Papp A→B [22]: 0.7 ×10⁻⁶ cm/s
bioavailability [23]: 110%
SMILES: Nc1[nH]ncc1-c1cc(Cl)ccc1Oc1cc(F)c(S(=O)(=O)Nc2cscn2)cc1Cl [PF-05089771]

Vd [4]: 29.7 L/kg
Vd [15]: 0.41 L/kg
pKa [24]: 7.4
logD [1]: 1.4
Tmax [18]: 0.3 h
Papp [6]: 3.2 ×10⁻⁶ cm/s
Cmax [20]: 0.67 ng/mL
Cmax [7]: 92.7 ng/mL
Papp B→A [21]: 11 ×10⁻⁶ cm/s
pKa [2]: 6.5
Vd [9]: 0.9 L/kg
bioavailability [10]: 68%
solubility [11]: > 262 µM
Papp A→B [22]: < 0.5 ×10⁻⁶ cm/s
bioavailability [23]: 52%
SMILES: CCN1CC(n2nccc2-c2cc(Cl)ccc2Oc2ccc(S(=O)(=O)Nc3cscn3)cc2C#N)C1 [PF-05150122]

Vd [4]: 11 L/kg
pKa [3]: 4
Vd [15]: 0.18 L/kg
logD [1]: 0.8 to 0.9
Cmax [16]: 2890 ng/mL
Tmax [18]: 1.5 h
Papp [6]: 0.7 ×10⁻⁶ cm/s
Tmax [19]: 1.5 h
Cmax [20]: 4.8 ng/mL
Cmax [7]: 73.2 ng/mL
Papp B→A [21]: 1.1 ×10⁻⁶ cm/s
pKa [2]: 4.3
Vd [9]: 0.5 L/kg
bioavailability [10]: 16%
solubility [11]: 286 µM (≈ 152 µg/mL)
Papp A→B [22]: < 0.5 ×10⁻⁶ cm/s
bioavailability [23]: 101%
bioavailability [25]: 54%
SMILES: O=S(=O)(Nc1nncs1)c1cc(Cl)c(Oc2ccc(C(F)(F)F)cc2-c2ccnnc2)cc1F [PF-05186462]

Source: ChEMBL document CHEMBL4038312 (J Med Chem, 2017)
